Data: PMC12367891, “Structure–metabolism relationships of 4-pentenyl synthetic cannabinoid receptor agonists using in vitro human hepatocyte incubations and high-resolution mass spectrometry” (Archives of Toxicology, 2025)

Tested on: pooled human hepatocytes
Assay: Incubation with pooled human hepatocytes, metabolite identification by LC-QTOF-MS
Assay type: in vitro ADME
Settings: 5 µM, HHeps, up to 3 h
Experimental: Incubations of the SCRAs with HHeps and subsequent metabolite identification were carried out as previously described in a published procedure, with slight modifications (Åstrand et al. [2019]; Stalberga et al. [2022]). To summarise, 5 µM of each SCRA was incubated with HHeps (100,000 cells) at 37 °C, 5% CO2 in a total volume of 100 μL of Williams E medium supplemented with L-glutamine and HEPES. Incubations were carried out in duplicate and quenched by the addition of 100 µL ice-cold acetonitrile at 0, 0.5, 1 and 3 h, after which the incubates were centrifuged at 1,100 × g for 15 min at 4 °C. The resulting supernatant was analysed by LC–QTOF-MS. On each day, negative controls (HHeps without drug) and degradation controls (drug without HHeps) were also incubated for 3 h.
Chromatographic separation was achieved using an Agilent 1290 Infinity ultra-high performance liquid chromatography (UHPLC) system (Agilent Technologies, Kista, Sweden); 4 µL supernatant was injected onto an Acquity HSS T3 column (150 × 2.1 mm, 1.8 μm) fitted with an Acquity VanGuard precolumn (Waters, Sollentuna, Sweden). Gradient elution was employed using 0.1% formic acid in water (A) and 0.1% formic acid in acetonitrile (B) mobile phases: 1% B (0–0.6 min); 1–20% B (0.6–0.7 min); 20–85% B (0.7–13 min); 85–95% B (13–15 min); 95% B (15–18 min); 95–1% B (18–18.1 min); 1% B (18.1–19 min), with a flow rate of 0.5 mL/min and column temperature of 60 °C. The UHPLC system was coupled to an Agilent 6550 iFunnel QTOF mass spectrometer (Agilent Technologies, Kista, Sweden) with a Dual Agilent Jet Stream electrospray ionisation (ESI) source. […]
To identify structure–metabolism relationships, the total proportion (%) that each type of biotransformation contributed to the summed abundance of metabolites (as measured by peak area) across the 0.5, 1 and 3 h incubations was determined. […]

| Structure (SMILES) | abundances of metabolites relative to the parent compound | most abundant metabolite |
| --- | --- | --- |
| C=CCCCN1C(=O)/C(=N\NC(=O)c2ccccc2)c2ccccc21 [BZO-4en-POXIZID] | small relative to the parent compound |  |
| C=CCCCn1cc(C(=O)NC(C(=O)OC)C(C)(C)C)c2ccccc21 (stereo not drawn) [MDMB-4en-PICA] |  | ester hydrolysis metabolite |
| C=CCCCn1nc(C(=O)NC(C(=O)OC)C(C)(C)C)c2ccccc21 (stereo not drawn) [MDMB-4en-PINACA, methyl 3,3-dimethyl-2-{[1-(pent-4-en-1-yl)-1H-indazole-3-carbonyl]amino}butanoate] |  | ester hydrolysis metabolite |
